Results on 30 compounds are retold here after US8188098B2, “GPR119 receptor agonists” (Hoffmann-La Roche Inc., priority 2008, dated 2012).

Each structure is given as a SMILES string.

The target of the test is T1, GPR119 receptor (Mesocricetus auratus, UniProt A0A1U8CD06).
T1 construct: which endogenously express the GPR119 receptor; host or cells: HIT-T15 hamster pancreatic islet cells
T1 sequence (A0A1U8CD06 1-334): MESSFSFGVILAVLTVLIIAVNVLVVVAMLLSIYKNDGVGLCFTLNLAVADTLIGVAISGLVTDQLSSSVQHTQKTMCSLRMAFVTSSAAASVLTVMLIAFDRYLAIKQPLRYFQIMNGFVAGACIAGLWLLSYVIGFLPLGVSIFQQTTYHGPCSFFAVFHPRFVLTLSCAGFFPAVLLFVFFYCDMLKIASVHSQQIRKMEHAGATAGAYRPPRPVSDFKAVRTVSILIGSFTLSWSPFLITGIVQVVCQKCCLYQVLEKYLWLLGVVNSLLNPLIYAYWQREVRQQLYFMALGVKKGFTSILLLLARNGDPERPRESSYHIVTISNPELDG
Description: cAMP assay in HIT-T15 hamster pancreatic islet cells (functional agonist activity). The class given is cell-based. As to conditions: HIT-T15 cells endogenously expressing GPR119; 30 min at 25° C.; intracellular cAMP. Put shortly: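 cAMP immunoassay with luminescent read-out, EC50 fitted, after a 30 min, 25° C agonist incubation in HIT-T15 hamster islet cells expressing GPR119 natively. Medium contained 0.5 mM IBMX and 0.5 mg/ml BSA; 9000 cells/well.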
`CC(=O)Nc1cccc(Oc2ncnc3c2cnn3C2CCN(C(=O)OC(C)(C)C)CC2)c1` [Example 69, 4-[4-(3-Acetylamino-phenoxy)-pyrazolo[3,4-d]pyrimidin-1-yl]-piperidine-1-carboxylic acid tert-butyl ester] returned an EC50 of 0.6 µM.
As for `COc1ccc(Oc2ncnc3c2cnn3C2CCN(C(=O)OC(C)(C)C)CC2)c(OC)n1` [Example 95, 4-[4-(2,6-Dimethoxy-pyridin-3-yloxy)-pyrazolo[3,4-d]pyrimidin-1-yl]-piperidine-1-carboxylic acid tert-butyl ester], the EC50 came to 0.89 µM.
As to `Cc1nn(C2CCN(C(=O)OC(C)C)CC2)c2ncnc(Oc3cc(F)c(F)cc3F)c12` [Example 17, 4-[3-Methyl-4-(2,4,5-trifluoro-phenoxy)-pyrazolo[3,4-d]pyrimidin-1-yl]-piperidine-1-carboxylic acid isopropyl ester], a half-maximal effect (EC50) was put at 0.7 µM. The EC50 values of the last two compounds are within 1.5-fold of each other.
Then `COC(=O)c1ccc(Oc2ncnc3c2cnn3C2CCN(C(=O)OC(C)(C)C)CC2)c(F)c1` [Example 63, 4-[4-(2-Fluoro-4-methoxycarbonyl-phenoxy)-pyrazolo[3,4-d]pyrimidin-1-yl]-piperidine-1-carboxylic acid tert-butyl ester], with 0.42 µM; and `CS(=O)(=O)c1ccc(Oc2ncnc3c2cnn3C2CCN(C(=O)CC3CCCCC3)CC2)cc1` [Example 145, 2-Cyclohexyl-1-{4-[4-(4-methanesulfonyl-phenoxy)-pyrazolo[3,4-d]pyrimidin-1-yl]-piperidin-1-yl}-ethanone], with 0.58 µM.
To `CC(C)CC(=O)N1CCC(n2ncc3c(Oc4ccc(S(C)(=O)=O)cc4)ncnc32)CC1` [Example 142, 1-{4-[4-(4-Methanesulfonyl-phenoxy)-pyrazolo[3,4-d]pyrimidin-1-yl]-piperidin-1-yl}-3-methyl-butan-1-one] belongs 0.33 µM; to `CS(=O)(=O)c1ccc(Oc2ncnc3c2cnn3C2CCN(C(=O)c3cccs3)CC2)cc1` [Example 155, {4-[4-(4-Methanesulfonyl-phenoxy)-pyrazolo[3,4-d]pyrimidin-1-yl]-piperidin-1-yl}-thiophen-2-yl-methanone], 1.6 µM; to `CC(C)c1noc(N2CCC(n3ncc4c(Oc5ccc(S(C)(=O)=O)cc5F)ncnc43)CC2)n1` [Example 127, 4-(2-Fluoro-4-methanesulfonyl-phenoxy)-1-[1-(3-isopropyl-[1,2,4]oxadiazol-5-yl)-piperidin-4-yl]-1H-pyrazolo[3,4-d]pyrimidine], 0.068 µM.
As to `CC(C)(C)OC(=O)N1CCC(n2ncc3c(Oc4ccc(-n5cnnn5)cc4)ncnc32)CC1` [Example 83, 4-[4-(4-Tetrazol-1-yl-phenoxy)-pyrazolo[3,4-d]pyrimidin-1-yl]-piperidine-1-carboxylic acid tert-butyl ester], the response was half-maximal at 1.6 µM (EC50).
To `CC(C)(C)OC(=O)N1CCC(n2ncc3c(N4CCc5cc(S(C)(=O)=O)ccc54)ncnc32)CC1` [Example 10, 4-[4-(5-Methanesulfonyl-2,3-dihydro-indol-1-yl)-pyrazolo[3,4-d]pyrimidin-1-yl]-piperidine-1-carboxylic acid tert-butyl ester] belongs 0.46 µM.
Then `CC(C)(C)OC(=O)N1CCC(n2ncc3c(Oc4ccc(F)cc4)ncnc32)CC1` [Example 34, 4-[4-(4-Fluoro-phenoxy)-pyrazolo[3,4-d]pyrimidin-1-yl]-piperidine-1-carboxylic acid tert-butyl ester], with 0.53 µM; and `Cc1nc(-n2cncn2)ccc1Oc1ncnc2c1cnn2C1CCN(C(=O)OC(C)C)CC1` [Example 30, 4-[4-(2-Methyl-6-[1,2,4]triazol-1-yl-pyridin-3-yloxy)-pyrazolo[3,4-d]pyrimidin-1-yl]-piperidine-1-carboxylic acid isopropyl ester], with 0.86 µM.
For the compound `CS(=O)(=O)c1ccc(Oc2ncnc3c2cnn3C2CCN(C(=O)CCc3ccccc3)CC2)cc1` [Example 146, 1-{4-[4-(4-Methanesulfonyl-phenoxy)-pyrazolo[3,4-d]pyrimidin-1-yl]-piperidin-1-yl}-3-phenyl-propan-1-one], the EC50 was 1 µM.
Then `Cc1ncccc1Oc1ncnc2c1cnn2C1CCC(c2nc(C(C)C)no2)CC1` (stereo not drawn) [Example 135, 1-[4-(3-Isopropyl-[1,2,4]oxadiazol-5-yl)-cyclohexyl]-4-(2-methyl-pyridin-3-yloxy)-1H-pyrazolo[3,4-d]pyrimidine], with 0.92 µM; and `CC(C)(C)OC(=O)N1CCC(n2ncc3c(Oc4ccc([N+](=O)[O-])cc4F)ncnc32)CC1` [Example 66, 4-[4-(2-Fluoro-4-nitro-phenoxy)-pyrazolo[3,4-d]pyrimidin-1-yl]-piperidine-1-carboxylic acid tert-butyl ester], with 0.75 µM.
In turn, `CC(C)(C)OC(=O)N1CCC(n2ncc3c(Oc4ccc(C#N)cc4F)ncnc32)CC1` [Example 47, 4-[4-(4-Cyano-2-fluoro-phenoxy)-pyrazolo[3,4-d]pyrimidin-1-yl]-piperidine-1-carboxylic acid tert-butyl ester] registered an EC50 of 0.28 µM.
Compound `CC(=O)Nc1ccc(Oc2ncnc3c2cnn3C2CCN(C(=O)OC(C)(C)C)CC2)cc1` [Example 70, 4-[4-(4-Acetylamino-phenoxy)-pyrazolo[3,4-d]pyrimidin-1-yl]-piperidine-1-carboxylic acid tert-butyl ester] returned an EC50 of 0.14 µM.
To `CC(C)(C)OC(=O)N1CCC(n2ncc3c(Oc4ccc(-c5ccsc5)cc4)ncnc32)CC1` [Example 86, 4-[4-(4-Thiophen-3-yl-phenoxy)-pyrazolo[3,4-d]pyrimidin-1-yl]-piperidine-1-carboxylic acid tert-butyl ester] belongs 0.49 µM; to `CC(C)(C)OC(=O)N1CCC(n2ncc3c(Oc4ccc(S(C)(=O)=O)c(F)c4)ncnc32)CC1` [Example 61, 4-[4-(3-Fluoro-4-methanesulfonyl-phenoxy)-pyrazolo[3,4-d]pyrimidin-1-yl]-piperidine-1-carboxylic acid tert-butyl ester], 0.095 µM; to `CCCCOC(=O)N1CCC(n2ncc3c(Oc4cccnc4C)ncnc32)CC1` [Example 104, 4-[4-(2-Methyl-pyridin-3-yloxy)-pyrazolo[3,4-d]pyrimidin-1-yl]-piperidine-1-carboxylic acid butyl ester], 0.85 µM.
Compound `CC(=O)N1CCN(c2ccc(Oc3ncnc4c3cnn4C3CCN(C(=O)OC(C)(C)C)CC3)cc2)CC1` [Example 67, 4-{4-[4-(4-Acetyl-piperazin-1-yl)-phenoxy]-pyrazolo[3,4-d]pyrimidin-1-yl}-piperidine-1-carboxylic acid tert-butyl ester] registered an EC50 of 0.85 µM.
`CCOC(=O)N1CCC(n2ncc3c(Oc4ccc(S(C)(=O)=O)cc4)ncnc32)CC1` [Example 13, 4-[4-(4-Methanesulfonyl-phenoxy)-pyrazolo[3,4-d]pyrimidin-1-yl]-piperidine-1-carboxylic acid ethyl ester] displayed an EC50 of 0.65 µM.
In turn, `Cc1nc(S(C)(=O)=O)ccc1Nc1ncnc2c1cnn2C1CCN(C(=O)OC(C)(C)C)CC1` [Example 8, 4-[4-(6-Methanesulfonyl-2-methyl-pyridin-3-ylamino)-pyrazolo[3,4-d]pyrimidin-1-yl]-piperidine-1-carboxylic acid tert-butyl ester] displayed an EC50 of 0.76 µM.
In turn, `COc1ccc(Oc2ncnc3c2cnn3C2CCN(C(=O)OC(C)(C)C)CC2)cc1` [Example 39, 4-[4-(4-Methoxy-phenoxy)-pyrazolo[3,4-d]pyrimidin-1-yl]-piperidine-1-carboxylic acid tert-butyl ester] registered an EC50 of 0.72 µM.
In turn, `CC(C)c1noc([C@H]2CC[C@H](n3ncc4c(Oc5ccc(S(C)(=O)=O)cc5F)ncnc43)CC2)n1` [Example 132, 4-(2-Fluoro-4-methanesulfonyl-phenoxy)-1-[4-(3-isopropyl-[1,2,4]oxadiazol-5-yl)-trans-cyclohexyl]-1H-pyrazolo[3,4-d]pyrimidine] had an EC50 of 0.35 µM.
To `CS(=O)(=O)c1ccc(Oc2ncnc3c2cnn3C2CCN(Cc3ccc(F)cc3)CC2)cc1` [Example 159, 1-[1-(4-Fluoro-benzyl)-piperidin-4-yl]-4-(4-methanesulfonyl-phenoxy)-1H-pyrazolo[3,4-d]pyrimidine] belongs 0.2 µM; to `CCOc1ccc(Oc2ncnc3c2cnn3C2CCN(C(=O)C3CCCC3)CC2)c(F)c1` [Example 147, Cyclopentyl-{4-[4-(4-ethoxy-2-fluoro-phenoxy)-pyrazolo[3,4-d]pyrimidin-1-yl]-piperidin-1-yl}-methanone], 0.26 µM.
Then `Cc1cc(C(=O)N2CCC(n3ncc4c(Oc5ccc(S(C)(=O)=O)cc5)ncnc43)CC2)no1` [Example 153, {4-[4-(4-Methanesulfonyl-phenoxy)-pyrazolo[3,4-d]pyrimidin-1-yl]-piperidin-1-yl}-(5-methyl-isoxazol-3-yl)-methanone], with 4.4 µM; and `CC(C)(C)OC(=O)N1CCCC(n2ncc3c(Oc4ccccc4C#N)ncnc32)C1` (stereo not drawn) [Example 90, 3-[4-(2-Cyano-phenoxy)-pyrazolo[3,4-d]pyrimidin-1-yl]-piperidine-1-carboxylic acid tert-butyl ester], with 0.12 µM; and `CS(=O)(=O)c1ccc(Oc2ncnc3c2cnn3C2CCN(C(=O)C3CCC3)CC2)cc1` [Example 140, Cyclobutyl-{4-[4-(4-methanesulfonyl-phenoxy)-pyrazolo[3,4-d]pyrimidin-1-yl]-piperidin-1-yl}-methanone], with 0.75 µM.

The term EC50 denotes the midpoint of the concentration-response curve. Read a high EC50 as lower potency in that assay.
